According to PubChem BioAssay (NCI):
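Grown in 96-well plates, cells were treated for 48 hours with each compound at five concentrations. Insufficient inhibition: endpoint recorded as highest concentration tested. The concentration for 50% growth inhibition is given as GI50. TGI: concentration producing complete growth inhibition.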

Tests used:
Experiment in all cases: inhibition of tumour cell growth, NCI panel, 48 h
HOP-62 NSCLC = test system: HOP-62 NSCLC
U251 CNS = test system: U251 CNS
SK-OV-3 ovarian = test system: SK-OV-3 ovarian
A549 NSCLC = test system: A549 NSCLC
SR leukemia = test system: SR leukemia
ACHN renal = test system: ACHN renal
UACC-257 melanoma = test system: UACC-257 melanoma
HS 578T breast = test system: HS 578T breast

Row | SMILES | GI50 (HOP-62 NSCLC) [µM] | TGI (HOP-62 NSCLC) [µM] | GI50 (U251 CNS) [µM] | TGI (U251 CNS) [µM] | GI50 (SK-OV-3 ovarian) [µM] | TGI (SK-OV-3 ovarian) [µM] | GI50 (A549 NSCLC) [µM] | TGI (A549 NSCLC) [µM] | GI50 (SR leukemia) [µM] | TGI (SR leukemia) [µM] | GI50 (ACHN renal) [µM] | TGI (ACHN renal) [µM] | GI50 (UACC-257 melanoma) [µM] | TGI (UACC-257 melanoma) [µM] | GI50 (HS 578T breast) [µM] | TGI (HS 578T breast) [µM]
1 | COc1ccc2[nH]c(C(=O)OCc3ccc4c(Br)cc(Br)c(O)c4n3)cc2c1 | 1.38 | 3.34 | 1.49 | 2.92 | 3.16 | 14.4 | 1.63 | 3.54 | 0.293 | 2.04 | 0.343 | 1.35 | 1.38 | 2.85 | 1.66 | 4.97
2 | Nc1nc2ccc(CNc3ccc(C(=O)NC(CC(=O)O)C(=O)O)cc3)cc2c(=O)[nH]1 (stereo unspecified) |  | > 100 | 7.49 | > 100 | > 29.1 | > 100 | 0.549 |  | 0.52 | > 100 | 3.6 | > 100 | > 100 | > 100 | > 64.2 | > 100
3 | O=C(O)CN1C(=O)OC(c2ccccc2)C1=O (stereo unspecified) |  | > 100 |  | > 100 |  | > 100 |  | > 100 |  | > 100 |  | > 100 |  | > 100 |  | > 100
4 | O=S(=O)(NCCNc1nccc(-c2c(-c3ccc(F)cc3)nc3sccn23)n1)c1ccc(O)cc1 | 14.3 | 85.6 | 1.36 | 23.4 | 9.17 | 73 | 3.28 | 43.1 | 1.82 | 21.5 | 2.03 | 45.6 | 5.84 | 34.7 | 6.48 | 42.7
5 | CC(=O)Oc1ccc(C2OC(c3ccc4ccccc4c3OC(C)=O)=NN2C(C)=O)c(OC(C)=O)c1 (stereo unspecified) | 0.513 | > 100 | 0.316 | 30.4 | 0.675 | > 52.3 | 0.412 | > 48.5 | 0.198 | > 34.5 | 0.264 | > 100 | 0.331 | 6.59 | 12 | > 100
6 | CCOC(=O)c1c(C)n([O-])c2cc(F)c(F)cc2[n+]1=O | 2.1 | 3.74 | 1.51 | 3.04 | 1.93 | 3.48 | 6.78 | 26 | 0.0482 | > 100 | 1.73 | 3.23 | 1.7 | 3.69 | 1.73 | 5.06
